Tested on: T1, CmaST8Sia IV (CmaΔ28ST8Sia IV; fish ST8Sia IV)
T1 construct: gene st8sia4; soluble Δ28 form lacking the first 28 residues (cytoplasmic tail and transmembrane domain), N-terminal 3xFLAG (p3×FLAG-CMV9), secreted by HEK293 cells; crude culture medium; ~52 kDa N-glycosylated; cDNA cloned from C. maraena with 1074 bp amplicon; printed XM_041897387 is Coregonus clupeaformis homologue
Test: MicroPlate Sialyltransferase Assay (click biotinylation, anti-biotin-HRP), Michaelis-Menten fit
Format: biochemical, Coregonus maraena
Conditions: acceptor CD166/ALCAM 400 ng; cacodylate buffer pH 6.4, 27 °C, 4 h; 0-100 µM donor; crude culture medium as enzyme; read-out: apparent Km

**Q.** How did the Km turn out when `C#CCCC(=O)N[C@H]1[C@H]([C@H](O)[C@H](O)CO)OC(OP(=O)(O)OC[C@H]2O[C@@H](n3ccc(N)nc3=O)[C@H](O)[C@@H]2O)(C(=O)O)C[C@@H]1O` (stereo partly shown) [CMP-SiaNAl] was run?
**A.** The Km was 17.6 ± 2.52 µM.

Reference: paper PMC10511417, “Salmonid polysialyltransferases to generate a variety of sialic acid polymers” (Scientific Reports, 2023)
